Data as given in patent US20070179143A1 (priority 2003, published 2007).

Key:
[1] = system: SK-OV-3; assay: Cytotoxicity test to cancer cell lines (SRB method), SK-OV-3; assay type: cell-based; details: Homo sapiens, SK-OV-3, 48 h, read-out: Cytotoxicity ED50 SK-OV-3
[2] = system: SK-MEL-2; assay: Cytotoxicity test to cancer cell lines (SRB method), SK-MEL-2; assay type: cell-based; details: Homo sapiens, SK-MEL-2, 48 h, read-out: Cytotoxicity ED50 SK-MEL-2
[3] = system: A549; assay: Cytotoxicity test to cancer cell lines (SRB method), A549; details: Homo sapiens, A549, 48 h, read-out: Cytotoxicity ED50 A549
[4] = system: MCF7; assay: Cytotoxicity test to cancer cell lines (SRB method), MCF7; details: read-out: Cytotoxicity ED50 MCF-7, MCF-7, 48 hours
Method: (§1) Cytotoxicity to A549 (Korea Research Institute of Chemical Technology), SK-OV-3 (Korea Research Institute of Chemical Technology), SK-MEL-2 (Korea Research Institute of Chemical Technology), HCT-15 (Korea Research Institute of Chemical Technology) and MCF7 (Korean Cell Line Bank, Seoul National University School of medicine) cells was measured by Sulforhodamin-B (SRB) method (1989, National Cancer Institute (NCI)) which was developed for the measurement of in vitro anticancer activity of a drug. Cells were separated using 0.25% trypsin-EDTA solution, leading to the preparation of a cell suspension by 5×10^318 2×10^4 cells/well. Then, the suspension was distributed into a 96 well plate by 100 μl/well, which was cultured in a 37° C., 5% CO2 incubator for 24 hours. Compounds prepared in examples of the present invention were used as a sample. Precisely, the compound was dissolved in dimethylsulfoxide and diluted with RPMI 1640 medium before being used as a sample. The final concentration of the sample used varied ranging 1 μM˜0.00001 μM. The medium was removed from the 96 well plate and then diluted sample solution was added by 100 μl/well, followed by further culture in a 37° C., 5% CO2 incubator for 48 hours. Tz (time zero) plate was collected from the point of adding the sample. Upon completing the culture, the medium was removed from each well along with Tz plate, then 10% trichloroacetic acid (TCA) was added by 100 μl/well. The plate was left at 4° C. for 1 hour to let cells be fixed on the floor of the plate. After cells were fixed completely, the plate was washed with water 5-6 times to remove the remaining trichloroacetic acid solution completely and moisture was completely dried at room temperature. 0.4% Sulforhodamine-B was dissolved in 1% acetic acid solution to prepare a staining solution. Cells were stained for 30 minutes with a dye added by 100 μl to each well of the completely dried plate. Then, the plate was washed with 1% acetic acid solution 5-6 times to remove sulforhodamine-B remained uncombined with cells. Then, the plate was dried at room temperature. 10 mM Tris solution was added by 100 μ/well thereto to dissolve the dye, and optical density (OD) was measured at 520 nm with a micro plate reader.
(§2) ED50 (concentration that inhibits cancer cell growth 50%, 5.0% effective dose, nM/ml) of the sample to cancer cell was calculated as follows. OD value at the point of beginning the culture with the sample was determined as Tz (time zero) value. OD value of a well to be cultured without the sample was determined as a control value (C). OD value of a well pretreated with the sample was determined as experimental value (T). After calculating Tz, C and T, cytotoxicity of the sample was measured by the below <Mathematical Formula 1>. T≦Tz, (T−Tz)/(C−Tz)×100 T>Tz, (T−Tz)/Tz×10,0 <Mathematical Formula 1>
(§3) ED50, the concentration that can inhibit cancer cell growth by 50%, was calculated by using a regression analysis of lotus program based on the degree of cytotoxicity obtained by the <Mathematical Formula 1>.

[5] = system: HCT-15; assay: Cytotoxicity test to cancer cell lines (SRB method), HCT-15; details: Homo sapiens, HCT-15, 48 h, read-out: Cytotoxicity ED50 HCT15
Method: as §1, §2, §3

Compound | EC50 [1] | EC50 [2] | EC50 [3] | EC50 [4] | EC50 [5]
COc1cc2c(c(OC)c1OC)-c1ccc(SC)c(=O)cc1[C@@H](NC(=O)c1ccc(CO[N+](=O)[O-])s1)CC2 [Example 6, 5-nitrooxymethyl-thiophene-2-carboxylic acid-[(7S)-1,2,3-trimethoxy-10-methylsulfanyl-9-oxo-5,6,7,9-tetrahydro-benzo[a]heptalen-7-yl]-amide] | 0.37 nM | 0.08 nM | 0.7 nM | 0.16 nM | 0.27 nM
COc1cc2c(c(OC)c1OC)-c1ccc(SC)c(=O)cc1[C@@H](N(C)C(=O)c1cc(F)cc(CO[N+](=O)[O-])c1)CC2 [Example 42, 3-fluoro-N-methyl-5-nitrooxymethyl-N-[(7S)-1,2,3-trimethoxy-10-methylsulfany-9-oxo-5,6,7,9-tetrahydro-benzo[a]heptalen-7-yl]-benzamide] | > 50 nM | > 50 nM | > 50 nM | > 50 nM | > 50 nM
COc1cc2c(c(OC)c1OC)-c1ccc(SC)c(=O)cc1[C@@H](NC(=O)c1cc(F)cc(CON=O)c1)CC2 [Example 37, 3-fluoro-5-nitrosooxymethyl-N-[(7S)-1,2,3-trimethoxy-10-methylsulfanyl-9-oxo-5,6,7,9-tetrahydro-benzo[a]heptalen-7-yl]-benzamide] | 38.8 nM | 9.4 nM | > 50 nM | 10.3 nM | 7.5 nM
COc1cc2c(c(OC)c1OC)-c1ccc(SC)c(=O)cc1[C@@H](NC(=O)c1ccc(CO[N+](=O)[O-])cc1O)CC2 [Example 20, 2-hydroxy-4-nitrooxymethyl-N-[(7S)-1,2,3-trimethoxy-10-methylsulfanyl-9-oxo-5,6,7,9-tetrahydro-benzo[a]heptalen-7-yl]-benzamide] | 1.83 nM | 2.47 nM | 3.93 nM | 1.15 nM | 1.03 nM
COc1c(OC(C)C)cc2c(c1OC)-c1ccc(SC)c(=O)cc1[C@@H](NC(=O)c1cc(F)cc(CO[N+](=O)[O-])c1)CC2 [Example 14, 3-fluoro-N-[(7S)-3-isopropoxy-1,2-dimethoxy-10-methylsulfanyl-9-oxo-5,6,7,9-tetrahydro-benzo[a]heptalen-7-yl]-5-nitrooxymethyl-benzamide] | 30.6 nM | 32.8 nM | 28.2 nM | 11.2 nM | 9.9 nM
COc1cc2c(c(OC)c1OC)-c1ccc(SC)c(=O)cc1[C@@H](NC(=O)c1sccc1CO[N+](=O)[O-])CC2 [Example 22, 3-nitrooxymethyl-thiophene-2-carboxylic acid [(7S)-1,2,3-trimethoxy-10-methylsulfanyl-9-oxo-5,6,7,9-tetrahydro-benzo[a]heptalen-7-yl]-amide] | 1.41 nM | 0.87 nM | 1.11 nM | 0.21 nM | 0.95 nM
COc1cc2c(c(OC)c1OC)-c1ccc(SC)c(=O)cc1[C@@H](NC(=O)c1ccccc1SN=O)CC2 [Example 35, 2-nitrosothio-N-[(7S)-1,2,3-trimethoxy-10-methylsulfanyl-9-oxo-5,6,7,9-tetrahydro-benzo[a]heptalen-7-yl]-benzamide] | > 50 nM | 41.9 nM | > 50 nM | 24.7 nM | 20.9 nM
COc1c(OC2CCCC2)cc2c(c1OC)-c1ccc(SC)c(=O)cc1[C@@H](NC(=O)c1cc(F)cc(CO[N+](=O)[O-])c1)CC2 [Example 15, N-[(7S)-3-cyclopentyloxy-1,2-dimethoxy-10-methylsulfanyl-9-oxo-5,6,7,9-tetrahydro-benzo[a]heptalen-7-yl]-3-fluoro-5-nitrooxymethyl-benzamide] | > 50 nM | 22.5 nM | 30.2 nM | 18.8 nM | 23.4 nM
COc1c(OC2CCCC2)cc2c(c1OC)-c1ccc(SC)c(=O)cc1[C@@H](NC(=O)c1cccc(CO[N+](=O)[O-])c1F)CC2 [Example 11, N-[(7S)-3-cyclopentyloxy-1,2-dimethoxy-10-methylsulfanyl-9-oxo-5,6,7,9-tetrahydro-benzo[a]heptalen-7-yl]-2-fluoro-3-nitrooxymethyl-benzamide] | > 50 nM | > 50 nM | > 50 nM | 39 nM | > 50 nM
COc1cc2c(c(OC)c1OC)-c1ccc(SC)c(=O)cc1[C@@H](NC(=O)c1ccc(CO[N+](=O)[O-])o1)CC2 [Example 2, 5-nitrooxymethyl-furan-2-carboxylic acid-[(7S)-1,2,3-trimethoxy-10-methylsulfanyl-9-oxo-5,6,7,9-tetrahydro-benzo[a]heptalen-7-yl]-amide] | 9.3 nM | 5.4 nM | 15.8 nM | 2.9 nM | 2.3 nM
COc1cc2c(c(OC)c1OC)-c1ccc(SC)c(=O)cc1[C@@H](NC(=O)c1cc(CO[N+](=O)[O-])cs1)CC2 [Example 21, 4-nitrooxymethyl-thiophene-2-carboxylic acid [(7S)-1,2,3-trimethoxy-10-methylsulfanyl-9-oxo-5,6,7,9-tetrahydro-benzo[a]heptalen-7-yl]-amide] | 0.59 nM | 0.29 nM | 0.97 nM | 0.1 nM | 0.13 nM
COc1cc2c(c(OC)c1OC)-c1ccc(OC)c(=O)cc1[C@@H](NC(=O)c1cc(F)cc(CO[N+](=O)[O-])c1)CC2 [Example 40, 3-fluoro-5-nitrooxymethyl-N-[(7S)-1,2,3,10-tetramethoxy-9-oxo-5,6,7,9-tetrahydro-benzo[a]heptalen-7-yl]-benzamide] | 45.6 nM | 60.7 nM | 43.9 nM | 10.5 nM | 24.3 nM
CCOc1cc2c(c(OC)c1OC)-c1ccc(SC)c(=O)cc1[C@@H](NC(=O)c1cccc(CO[N+](=O)[O-])c1)CC2 [Example 4, N-[(7S)-3-ethoxy-1,2-dimethoxy-10-methylsulfanyl-9-oxo-5,6,7,9-tetrahydro-benzo[a]heptalen-7-yl]-3-nitrooxymethyl-benzamide] | 0.01 nM | 0.01 nM | 0.01 nM | 0.01 nM | 0.03 nM
COc1cc2c(c(OC)c1OC)-c1ccc(SC)c(=O)cc1[C@@H](NC(=O)Cc1cccc(CO[N+](=O)[O-])c1)CC2 [Example 23, 2-(3-nitrooxymethyl-phenyl)-N-[(7S)-1,2,3-trimethoxy-10-methylsulfanyl-9-oxo-5,6,7,9-tetrahydro-benzo[a]heptalen-7-yl]-acetamide] | 5.6 nM | 3.5 nM | 5.4 nM | 3.3 nM | 3.4 nM
COc1cc2c(c(OC)c1OC)-c1ccc(SC)c(=O)cc1[C@@H](NC(=O)c1cccc(CO[N+](=O)[O-])c1F)CC2 [Example 10, 2-fluoro-3-nitrooxymethyl-N-[(7S)-1,2,3-trimethoxy-10-methylsulfanyl-9-oxo-5,6,7,9-tetrahydro-benzo[a]heptalen-7-yl]-benzamide] | 0.23 nM | 0.12 nM | 0.28 nM | 0.09 nM | 0.39 nM
COc1cc2c(c(OC)c1OC)-c1ccc(SC)c(=O)cc1[C@@H](NC(=O)c1cc(F)cc(CSN=O)c1)CC2 [Example 39, 3-fluoro-5-nitrosothiomethyl-N-[(7S)-1,2,3-trimethoxy-10-methylsulfanyl-9-oxo-5,6,7,9-tetrahydro-benzo[a]heptalen-7-yl]-benzamide] | 28.2 nM | > 50 nM | 40.7 nM | 5 nM | 9.9 nM
COc1cc2c(c(OC)c1OC)-c1ccc(SC)c(=O)cc1[C@@H](N(C)C(=O)c1cccc(CO[N+](=O)[O-])c1)CC2 [Example 41, 3-nitrooxymethyl-N-methyl-N-[(7S)-1,2,3-trimethoxy-10-methylsulfanyl-9-oxo-5,6,7,9-tetrahydro-benzo[a]heptalen-7-yl]-benzamide] | > 50 nM | > 50 nM | > 50 nM | 47.3 nM | 36.4 nM
COc1cc2c(c(OC)c1OC)-c1ccc(SC)c(=O)cc1[C@@H](NC(=O)c1cc(CO[N+](=O)[O-])cc(CO[N+](=O)[O-])c1)CC2 [Example 19, 3,5-bis-nitrooxymethyl-N-[(7S)-1,2,3-trimethoxy-10-methylsulfanyl-9-oxo-5,6,7,9-tetrahydro-benzo[a]heptalen-7-yl]-benzamide] | 34.8 nM | 31 nM | 23.5 nM | 8.2 nM | 10.1 nM
COc1cc2c(c(OC)c1OC)-c1ccc(SC)c(=O)cc1[C@@H](NC(=O)c1cc(CO[N+](=O)[O-])ccc1F)CC2 [Example 17, 2-fluoro-5-nitrooxymethyl-N-[(7S)-1,2,3-trimethoxy-10-methylsulfanyl-9-oxo-5,6,7,9-tetrahydro-benzo[a]heptalen-7-yl]-benzamide] | 0.19 nM | 0.17 nM | 0.21 nM | 0.08 nM | 0.19 nM
COc1c(OC(C)C)cc2c(c1OC)-c1ccc(SC)c(=O)cc1[C@@H](NC(=O)c1cccc(CO[N+](=O)[O-])c1)CC2 [Example 3, N-[(7S)-3-isopropoxy-1,2-dimethoxy-10-methylsulfanyl-9-oxo-5,6,7,9-tetrahydro-benzo[a]heptalen-7-yl]-3-nitrooxymethyl-benzamide] | 4 nM | 1 nM | 2.4 nM | 2.3 nM | 4.8 nM
COc1c(OC(C)C)cc2c(c1OC)-c1ccc(SC)c(=O)cc1[C@@H](NC(=O)c1cccc(CO[N+](=O)[O-])c1F)CC2 [Example 9, 2-fluoro-N-[(7S)-3-isopropoxy-1,2-dimethoxy-10-methylsulfanyl-9-oxo-5,6,7,9-tetrahydro-benzo[a]heptalen-7-yl]-3-nitrooxymethyl-benzamide] | 0.34 nM | 0.22 nM | 0.49 nM | 0.13 nM | 0.64 nM
